The values below come from patent US9534221B2, “Targeting the steroidogenic pathway for treating and/or preventing allergic diseases” (National Jewish Health, priority 2013, dated 2017).

Data set [1] relates to CD8+ T cells. Kind of data set: Flow cytometric intracellular staining of IFN-γ and IL-13 in CD8+ T cells. The settings on record: no SIINFEKL
The format is cell-based, mouse.

Data set [2] deals with T1, Cyp11a1 (Mus musculus, UniProt Q9QZ82).
T1 construct: mononuclear cells (MNCs) were processed from the spleens of OT-1 mice; endogenous in cells
T1 sequence (Q9QZ82 37-526): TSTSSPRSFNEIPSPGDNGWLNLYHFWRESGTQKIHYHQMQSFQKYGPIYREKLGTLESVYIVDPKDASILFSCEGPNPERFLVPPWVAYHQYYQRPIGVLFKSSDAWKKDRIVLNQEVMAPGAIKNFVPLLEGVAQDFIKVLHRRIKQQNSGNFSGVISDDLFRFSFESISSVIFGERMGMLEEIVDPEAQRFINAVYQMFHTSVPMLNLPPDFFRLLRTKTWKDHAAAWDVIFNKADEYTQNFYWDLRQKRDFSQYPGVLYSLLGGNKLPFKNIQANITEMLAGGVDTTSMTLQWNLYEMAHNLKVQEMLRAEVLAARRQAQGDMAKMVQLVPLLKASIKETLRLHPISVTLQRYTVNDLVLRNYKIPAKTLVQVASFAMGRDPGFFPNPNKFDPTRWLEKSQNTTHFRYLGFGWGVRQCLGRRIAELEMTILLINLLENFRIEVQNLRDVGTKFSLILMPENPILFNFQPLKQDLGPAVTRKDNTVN
Kind of data set: Pregnenolone levels in serum of peanut sensitized and challenged mice (Cyp11a1 enzymatic activity). Type of data set: in vivo. The settings on record: AMG 20 mg/kg, PE/PE mice; PE/PE without AMG 4.69±0.92, PBS/PE 1.99±0.11.
Protocol: AMG was dissolved in 1 M hydrogen chloride and diluted with saline for in vivo studies or diluted with RPMI medium for in vitro study. The final concentration of 1 M hydrogen chloride was less than 1% and 0.05% for in vivo and in vitro, respectively. PE sensitized and challenged mice received different doses (5, 10, 20 mg/kg) of the Cyp11a1 enzyme inhibitor (PE/PE/AMG) by means of gavage using a 22-gauge feeding needle (Fisher Scientific) twice a day during the peanut challenge phase. Controls included PE sensitized and challenged but vehicle (saline) treated (PE/PE/vehicle), or sham sensitized but PE challenged and vehicle-treated (PBS/PE/vehicle) mice.
Pregnenolone levels in serum and cell culture supernatants were measured by ELISA (ALPCO Diagnostics, Salem, N.H.), as described by the manufacturer.

In data set [3] the test system is CD8+ T cells. The data set can be described thus: Flow cytometric intracellular staining of IFN-γ and IL-13 in CD8+ T cells. The format is cell-based, mouse. The procedure:
CD8^+ effector memory T cells were generated in vitro as previously described (Miyahara, N. et al. J. Immunol. 172, 2549-2558 (2004); Miyahara, N. et al. J. Immunol. 174, 4979-4984 (2005)). In brief, mononuclear cells (MNCs) were processed from the spleens of OT-1 mice followed by stimulation of 1 μg/ml SIINFEKL peptide (SEQ ID NO:1) was used to stimulate cells for 1.5 hours. Two days after culture, living cells were re-isolated using histopaque and cultured in complete RPMI 1640 medium that contained recombinant mouse IL-2 (20 ng/ml) (R&D, Minneapolis, Minn.) or IL-2+IL-4 (20 ng/ml) (Peprotech, Rocky Hill, N.J.). For some experiments, AMG was added into the medium together with IL-2 or IL-2+IL-4. Medium with cytokines was changed every day for a further 4 days. The cells were then re-stimulated with 1 μg/ml SIINFEKL (SEQ ID NO:1) in medium containing 2 μM monensin (Calbiochem, La Jolla, Calif.) for 4 hours. […]
For intracellular staining, 1×10^6/ml cells were washed twice with PBS containing 1% BSA, stimulated with 1 μg/ml SIINFEKL in the presence of 2 μM monensin at 37° C. for 4 hours. After fixation with 4% paraformaldehyde (Electron Microscopy Sciences, Hatfield, Pa.) and permeabilization with 0.1% saponin (Sigma, St. Louis, Mo.), cells were washed twice with PBS containing 1% BSA, then incubated with anti-mouse CD16/CD32 (2.4G2) (BD Bioscience, San Jose, Calif.) at 4° C. for 5 minutes, then stained with FITC labeled anti-mouse IFN-γ (XMG 1.2) (eBioscience, San Diego, Calif.) or PerCP-Cy5.5 labeled anti-mouse […] (XMG 1.2) (eBioscience) and PE-labeled anti-mouse IL-13 (eBio13A) (eBioscience). For some experiments, fixed cells were stained with biotin labeled rabbit anti-Cyp11a1/p450 cc polyclonal antibody (Bioss, Woburn, Mass.) followed by PE-Cy5 labeled streptavidin (PE-Cy5-SAv) (eBioscience). Cell staining was monitored on a FACSCalibur (BD Bioscience) and analyzed using Flowjo software (Tree Star, Inc, Ashland, Oreg.).

For data set [4], the system named is T-bet and GATA3 expression. Kind of data set: Quantitative RT-PCR of T-bet and GATA3 in CD8+ T cells. The format is cell-based, mouse. The settings on record: CD8+ T cells in IL-2 or IL-2+IL-4, untreated vs 500 μM AMG. The procedure: CD8^+ effector memory T cells were generated in vitro as previously described (Miyahara, N. et al. J. Immunol. 172, 2549-2558 (2004); Miyahara, N. et al. J. Immunol. 174, 4979-4984 (2005)). In brief, mononuclear cells (MNCs) were processed from the spleens of OT-1 mice followed by stimulation of 1 μg/ml SIINFEKL peptide (SEQ ID NO:1) was used to stimulate cells for 1.5 hours. Two days after culture, living cells were re-isolated using histopaque and cultured in complete RPMI 1640 medium that contained recombinant mouse IL-2 (20 ng/ml) (R&D, Minneapolis, Minn.) or IL-2+IL-4 (20 ng/ml) (Peprotech, Rocky Hill, N.J.). For some experiments, AMG was added into the medium together with IL-2 or IL-2+IL-4. Medium with cytokines was changed every day for a further 4 days. The cells were then re-stimulated with 1 μg/ml SIINFEKL (SEQ ID NO:1) in medium containing 2 μM monensin (Calbiochem, La Jolla, Calif.) for 4 hours. Total RNA was extracted from 5×10^6 differentiated CD8^+ T cells using the RNeasy Mini kit (Qiagen, Valencia, Calif.). 1 μg of total RNA was converted into cDNA using iScript cDNA Synthesis kit (Bio-Rad, Hercules, Calif.). […] Fold-changes were determined using the 2^−ΔΔCt method, with normalization to expression of mouse GAPDH.

[5] abbreviates: IL-2+AMG (500 μM)+SIINFEKL 1 μg/ml.
[6] abbreviates: IL-2+IL-4+AMG (500 μM), no SIINFEKL
Where [7] appears, read: SIINFEKL and IL-2+IL-4, different concentrations of AMG.

Several values for one entry are separate records, joined by “and”; a condition that tells them apart may be missing. Equal entries are not always repeated.

For the compound `CCC1(c2ccc(N)cc2)CCC(=O)NC1=O` (stereo not shown) [AMG, aminoglutethimide], the “IFN-γ single positive cells” value in data set [1] (IL-2+AMG (500 μM)) is on record as 0.2 +/− 0.1%; in data set [3] (setting [5]), 78.3 +/− 8.3%; in data set [3] (IL-2+IL-4+AMG (500 μM)+SIINFEKL, without AMG 14.5±5.8%) it was 42.4±11.5%; in data set [3] (setting [6]), 0.9 +/− 0.5%. Also, the “IFN-γ+IL13+ double positive cells” value was 0% in data set [1] (IL-2+AMG (500 μM)); 0.1% in data set [1] (IL-2+IL-4+AMG (500 μM)); 9.0 +/− 2.7% in data set [3] (setting [5]); 14.7±5.5% and 14.7 +/− 5.5% in data set [3] (IL-2+IL-4+AMG (500 μM)+SIINFEKL, without AMG 8.8±2.3%). For the same compound, the “IL-13 single positive cells” value in data set [1] (IL-2+AMG (500 μM)) is given as 0.4 +/− 0.2%; in data set [3] (setting [5]), 0.1 +/− 0.1%; in data set [3] (IL-2+IL-4+AMG (500 μM)+SIINFEKL, without AMG 35.7±8.2%), 14.7±8.9%; in data set [3] (setting [6]) it was 2.3 +/− 1.5%. The “Pregnenolone levels in serum” value in data set [2] amounted to 2.98 ± 0.60 ng/mL. The “Overall suppressive or toxic effect on CD8+ T cell cultures” value in data set [3] (AMG in culture) is “did not have an overall suppressive or toxic effect”. In data set [3] (setting [7]), the “IFN-γ-positive cells, dose dependence” value was “increase in IFN-γ-positive cells”. For the same compound, the “Percentage of IL-13-positive cells, dose dependence” value in data set [3] (setting [7]) is reported as “dramatic dose-dependent decrease in the percentage of IL-13-positive cells”. In data set [3] (initial studies), the “Duration of the effects of AMG on CD8+ T cell conversion before the cells recovered” value is recorded as “up to forty-eight hours”. The GATA3 expression entry in data set [4] was “no significant differences”. In addition, the T-bet expression result in data set [4] is on record as “no significant differences”.
